Test results from patent publication US7544703B2, “Cyclic compound having 4-pyridylalkylthio group having substituted or unsubstituted amino group introduced therein” (Santen Pharmaceutical Co., Ltd., priority 2004, dated 2009).
Structures can show the parent of a compound that is named as a salt.

Legend:
[1] = system: HUVEC (normal human umbilical vein endothelial cells); assay: VEGF-induced HUVEC proliferation: cell proliferation inhibitory action test; format: cell-based; details: 72 h, 5 μL of 20 μg/mL test compound solution per well, WST-8 absorbance at 450 nm three days after VEGF addition, read-out: Cell proliferation inhibition rate (%);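 note: each well holds 100 µL cell suspension before compound addition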
Experimental: A cell proliferation inhibitory action test of the compounds of the present invention was performed using a VEGF-induced HUVEC proliferation evaluation system (HUVEC stands for normal human umbilical vein endothelial cells), which is one of the widely-used methods of evaluating in vitro angiogenesis inhibitory effects of drugs. As one of the widely-used methods of evaluating angiogenesis inhibitory effects of drugs, a cell proliferation inhibitory action test using a VEGF-induced HUVEC proliferation reaction evaluation system has been reported in Cancer Res., 59, 99-106 (1999). According to the method described in the above-mentioned document, a cell proliferation inhibitory action test of the compounds of the present invention was performed, the cell proliferation inhibition rate was calculated, and the angiogenesis inhibitory effect of each of the compounds of the present invention was evaluated using the obtained rate as an index. Each test compound was dissolved in dimethyl sulfoxide (hereinafter abbreviated as DMSO), and the obtained solution was diluted with a commercially available phosphoric acid buffer solution (hereinafter abbreviated as PBS), whereby a 20 μg/mL test compound solution was prepared. HUVEC was suspended in a 0.5% fetal bovine serum (hereinafter abbreviated as FBS)-containing F12K medium, whereby a 2×10^4 cells/mL HUVEC suspension was prepared. VEGF was dissolved in 0.1% bovine serum albumin-containing PBS, and the obtained solution was diluted with the 0.5% FBS-containing F12K medium, whereby a 400 ng/mL VEGF solution was prepared. • 1) The HUVEC suspension was inoculated in an amount of 100 μL into each well of a 96-well plate coated with type I collagen (2×10^3 cells per well). • 2) One day after the inoculation, the test compound solution was added in an amount of 5 μL per well. • 3) One hour after the addition of the test compound solution, the VEGF solution was added in an amount of 5 μL per well. • 4) Three days after the addition of the VEGF solution, WST-8 assay kit (Dojin Chemical Co., Ltd.) was added in an amount of 10 μL per well. • 5) After 3 hours, the above-mentioned plate was attached to an absorptiometer (Multilabel Counter ARVO), and an absorbance at 450 nm of each well suspension (hereinafter referred to as test compound suspension) was measured. • 6) A test was carried out in the same manner as in the above 1) to 5) except that 1.0% DMSO was used instead of the test compound solution. The result was used as a control. Incubation was carried out under conditions of 37° C., 5% carbon dioxide and […] in an incubator throughout the above-mentioned test steps. The cell proliferation inhibition rate (%), which was used as an index of an angiogenesis inhibitory effect, was calculated according to the following calculation equation. Cell proliferation inhibition rate (%)=100−{(Absorbance of test compound suspension−A)/(absorbance of control−A)}×100 (Calculation Equation) A: Absorbance of only cell suspension (cell+medium) (Test Results and Discussion)

B16 cells = assay: Tumor growth inhibitory action test using cancer models in mice (B16 cells); format: in vivo; details: C57BL/6N mouse, B16 cells intradermal; 100 mg/kg/day oral once a day, day 0 to day 10; average of 9 mice per group; read-out: Tumor tissue weight inhibition rate (%)
Experimental: A tumor growth inhibitory action test of the compounds of the present invention was performed using a tumor growth model in mice, which is one of the widely-used methods of evaluating in vivo anticancer effects of drugs.
As one of the widely-used methods of evaluating anticancer effects of drugs, a tumor growth inhibitory action test using cancer models in mice has been reported in Cancer Res., 59, 5209-5218 (1999). According to the method described in the above-mentioned document, a tumor growth inhibitory action test of the compounds of the present invention was performed, the tumor tissue weight inhibition rate was calculated, and the anticancer effect of each of the compounds of the present invention was evaluated using the obtained rate as an index.
A 1% aqueous methyl cellulose solution was added to each test compound to suspend it with a sonicator, whereby a 10 mg/mL test compound suspension was prepared.
Physiological saline was added to B16 cells, whereby a 3.3×10^7 cells/mL B16 cell suspension was prepared.
• 1) The back of each mouse (female, 6 weeks of age, C57BL/6N mouse) was depilated using a depilatory under Nembutal anesthesia. • 2) Several days after the depilation, the B16 cell suspension (300 μL) was injected intradermally into the back of the mouse under Nembutal anesthesia. • 3) From the B16 cell injection day (i.e. on day 0) to day 10, the test compound suspension (100 mg/kg/day) was orally administered once a day consecutively. • 4) Ten days after the injection of the cells, the mouse was euthanized with CO2 gas. • 5) A tumor tissue was enucleated from the mouse, and the weight of the tumor tissue was measured with an electronic balance. • 6) A test was performed in the same manner as in 1) to 5) except that the 1% aqueous methyl cellulose solution was used instead of the test compound suspension, and the result was used as a control. (Calculation of Tumor Tissue Weight Inhibition Rate)
A tumor tissue weight inhibition rate (the average of 9 mice per group), which was used as an index of anticancer effect, was calculated according to the following calculation equation. Tumor tissue weight inhibition rate (%)=100−(Mx/Mo)×100 (Calculation Equation) Mo: Tumor tissue weight of control group Mx: Tumor tissue weight of test compound solution administration group (Test Results and Discussion)

CC(=O)Nc1cc(CSc2ccsc2C(=O)Nc2cc(C)cc(C)c2)ccn1 [Compound 4-56, 3-(2-Acetylaminopyridin-4-ylmethylthio)-N-(3,5-dimethylphenyl)thiophene-2-carboxamide]
inhibition at 20 µg/mL (stock) [1]: 99%
inhibition in vivo at 100 mg/kg/day (B16 cells): 42%

CC(=O)Nc1cc(CSc2ncccc2C(=O)Nc2cccc(Cl)c2)ccn1 [Compound 4-16, 2-(2-Acetylaminopyridin-4-ylmethylthio)-N-(3-chlorophenyl)pyridine-3-carboxamide]
inhibition in vivo at 100 mg/kg/day (B16 cells): 74%

CC(C)c1cccc(NC(=O)c2cccnc2SCc2ccnc(N)c2)c1 [Compound 3-2, 2-(2-Aminopyridin-4-ylmethylthio)-N-(3-isopropylphenyl)pyridine-3-carboxamide monohydrochloride]
inhibition at 20 µg/mL (stock) [1]: 97%
inhibition in vivo at 100 mg/kg/day (B16 cells): 61%

Cc1cc(C)cc(NC(=O)c2ccccc2SCc2ccnc(N)c2)c1 [Compound 3-20, 2-(2-Aminopyridin-4-ylmethylthio)-N-(3,5-dimethylphenyl)benzamide monohydrochloride]
inhibition at 20 µg/mL (stock) [1]: 100%
inhibition in vivo at 100 mg/kg/day (B16 cells): 42%

CC(=O)Nc1cc(CSc2ncccc2C(=O)Nc2ccc(OC(F)(F)F)c(Cl)c2)ccn1 [Compound 4-14, 2-(2-Acetylaminopyridin-4-ylmethylthio)-N-(3-chloro-4-trifluoromethoxyphenyl)pyridine-3-carboxamide]
inhibition in vivo at 100 mg/kg/day (B16 cells): 44%

CCC(=O)Nc1cc(CSc2ncccc2C(=O)Nc2cc(C)cc(C)c2)ccn1 [Compound 4-2, N-(3,5-Dimethylphenyl)-2-(2-propionylaminopyridin-4-ylmethylthio)pyridine-3-carboxamide]
inhibition at 20 µg/mL (stock) [1]: 100%
inhibition in vivo at 100 mg/kg/day (B16 cells): 51%

CC(=O)Nc1cc(CSc2ncccc2C(=O)Nc2ccc3cn[nH]c3c2)ccn1 [Compound 4-22, 2-(2-Acetylaminopyridin-4-ylmethylthio)-N-(1H-indazol-6-yl)pyridine-3-carboxamide]
inhibition at 20 µg/mL (stock) [1]: 97%

Cc1cc(C)cc(NC(=O)c2sccc2SCc2ccnc(N)c2)c1 [Compound 3-28, 3-(2-Aminopyridin-4-ylmethylthio)-N-(3,5-dimethylphenyl)thiophene-2-carboxamide]
inhibition at 20 µg/mL (stock) [1]: 100%

Cc1cc(C)cc(NC(=O)c2cccnc2SCc2ccnc(NC3CC3)c2)c1 [Compound 1-2, 2-(2-Cyclopropylaminopyridin-4-ylmethylthio)-N-(3,5-dimethylphenyl)pyridine-3-carboxamide]
inhibition at 20 µg/mL (stock) [1]: 100%

Cc1cc(C)cc(NC(=O)c2cccnc2SCc2ccnc(Nc3ncc(C#N)s3)c2)c1 [Compound 2-24, 2-[2-(5-Cyanothiazol-2-ylamino)pyridin-4-ylmethylthio]-N-(3,5-dimethylphenyl)pyridine-3-carboxamide]
inhibition at 20 µg/mL (stock) [1]: 88%

CC(C)c1cccc(NC(=O)c2cccnc2SCc2ccnc(NC(=O)OC(C)(C)C)c2)c1 [Compound 2-2, 2-(2-tert-Butoxycarbonylaminopyridin-4-ylmethylthio)-N-(3-isopropylphenyl)pyridine-3-carboxamide]
inhibition at 20 µg/mL (stock) [1]: 100%

Cc1cc(C)cc(NC(=O)c2cccnc2SCc2ccnc(NC(=O)C(C)(C)C)c2)c1 [Compound 4-5, N-(3,5-Dimethylphenyl)-2-(2-pivaloylaminopyridin-4-ylmethylthio)pyridine-3-carboxamide]
inhibition at 20 µg/mL (stock) [1]: 100%

CC(C)(C)OC(=O)Nc1cc(CSc2ncccc2C(=O)Nc2ccc(C(C)(C)C)cc2)ccn1 [Compound 2-5, 2-(2-tert-Butoxycarbonylaminopyridin-4-ylmethylthio)-N-(4-tert-butylphenyl)pyridine-3-carboxamide]
inhibition at 20 µg/mL (stock) [1]: 95%

Cc1cc(C)cc(NC(=O)c2cccnc2SCc2ccnc(NC(=O)Nc3ccc(Cl)cc3)c2)c1 [Compound 5-3, 2-[2-(N′-4-Chlorophenylureido)pyridin-4-ylmethylthio]-N-(3,5-dimethylphenyl)pyridine-3-carboxamide]
inhibition at 20 µg/mL (stock) [1]: 100%

CC(=O)Nc1cc(CSc2ccccc2C(=O)Nc2cc(C)cc(C)c2)ccn1 [Compound 4-43, 2-(2-Acetylaminopyridin-4-ylmethylthio)-N-(3,5-dimethylphenyl)benzamide]
inhibition in vivo at 100 mg/kg/day (B16 cells): 47%

Cc1cc(C)cc(NC(=O)c2cccnc2SCc2ccnc(N3CCN(C)CC3)c2)c1 [Compound 1-1, N-(3,5-Dimethylphenyl)-2-[2-(4-methylpiperazin-1-yl)pyridin-4-ylmethylthio]pyridine-3-carboxamide]
inhibition at 20 µg/mL (stock) [1]: 97%

Cc1cc(C)cc(NC(=O)c2cccnc2SCc2ccnc(N3CCOCC3)c2)c1 [Compound 1-4, N-(3,5-Dimethylphenyl)-2-(2-morpholinopyridin-4-ylmethylthio)pyridine-3-carboxamide]
inhibition at 20 µg/mL (stock) [1]: 100%
inhibition in vivo at 100 mg/kg/day (B16 cells): 68%

CN(C)CCN(C)CC(=O)NC(Sc1ncccc1C(=O)Nc1ccc(OC(F)(F)F)cc1)c1ccncc1 (stereo not drawn) [Compound 17-28, 2-[2-(N-(2-Dimethylaminoethyl)-N-methylamino)acetylaminopyridin-4-ylmethylthio]-N-(4-trifluoromethoxyphenyl)pyridine-3-carboxamide]
inhibition at 20 µg/mL (stock) [1]: 100%

CNC(=O)Nc1cc(CSc2ncccc2C(=O)Nc2ccc(Cl)cc2)ccn1 [Compound 9-3, N-(4-Chlorophenyl)-2-[2-(N′-methylureido)pyridin-4-ylmethylthio]pyridine-3-carboxamide]
inhibition at 20 µg/mL (stock) [1]: 100%

Cc1cc(C)cc(NC(=O)c2cccnc2SCc2ccnc(N(C)C(=O)OC(C)(C)C)c2)c1 [Compound 2-7, 2-[2-(N-tert-Butoxycarbonyl-N-methylamino)pyridin-4-ylmethylthio]-N-(3,5-dimethylphenyl)pyridine-3-carboxamide]
inhibition at 20 µg/mL (stock) [1]: 52%

CC(=O)Nc1cc(CSc2ccsc2C(=O)Nc2ccc(Cl)cc2)ccn1 [Compound 4-57, 3-(2-Acetylaminopyridin-4-ylmethylthio)-N-(4-chlorophenyl)thiophene-2-carboxamide]
inhibition at 20 µg/mL (stock) [1]: 100%

Nc1cc(CSc2ncccc2C(=O)Nc2ccc3c(c2)CCC3)ccn1 [Compound 3-3, 2-(2-Aminopyridin-4-ylmethylthio)-N-(indan-5-yl)pyridine-3-carboxamide monohydrochloride]
inhibition at 20 µg/mL (stock) [1]: 100%
